The values that follow come from PMC12507022, “Widespread distribution of BpfA-mediated bisphenol F degradation among members of the Pseudomonadota and Actinomycetota” (The ISME Journal, 2025).

Test [1] concerns T1, BpfA.
T1 construct: recombinant from pET29a(+) (NdeI/XhoI) in E. coli BL21(DE3), Ni-NTA purified; contains flavin
Description: HPLC, Michaelis-Menten fit. Type of test: biochemical, Microbacterium sp. F2. The settings on record: 20 mM Tris-HCl pH 8.0, 30 °C, O2 as electron acceptor.

Test [2] concerns T2, FBO.
T2 construct: synthetic gene, expressed and purified like BpfA (E. coli, Ni-NTA)
Briefly: HPLC, Michaelis-Menten fit. The test is classed as biochemical, Sphingobium sp. W15. Particulars: 20 mM Tris-HCl pH 8.0, 30 °C, 0.2 mM FAD added.

With `COCc1ccc(O)cc1` [4MOP], in test [1], the Km – broadly, the concentration of substrate that gives half-maximal velocity – amounted to 297 ± 5 µM.
`CCCc1ccc(O)c(OC)c1` [4PG]: the Km in test [1] stood at 25.4 ± 2.9 µM; in test [2], 170 ± 5.9 µM.
Take `Oc1ccc(Cc2ccc(O)cc2)cc1` [BPF]: the results for the Km in test [1] and in test [2] were 12.4 ± 1.9 µM and 167 ± 12.8 µM, respectively.
In the case of `COc1cc(CO)ccc1O` [VA], the Km in test [1] stood at 266 ± 10.3 µM; in test [2], 183 ± 9.3 µM.
